In general, IC50 refers to the midpoint of a concentration-inhibition curve. Read a low IC50 as inhibition by little substance.

Experimental findings from patent US8168656B2, “Indoleacetic acid and indenacetic acid derivatives as therapeutic agents with reduced gastrointestinal toxicity” (Vanderbilt University, priority 2009, dated 2012) are described below.

Positions count from the first letter of the chain named. Bounds are passed on as bounds.

What all share (assay): Time-dependent IC50 COX inhibition assay
Holding throughout (type): biochemical, murine

The target in test [1] is T1, mCOX-2^V349L (Mus musculus, UniProt Q05769, V335L).
T1 construct: made in house; host or cells: Sf9 insect cells (baculovirus, pVL1393)
T1 sequence (Q05769 18-604 V335L): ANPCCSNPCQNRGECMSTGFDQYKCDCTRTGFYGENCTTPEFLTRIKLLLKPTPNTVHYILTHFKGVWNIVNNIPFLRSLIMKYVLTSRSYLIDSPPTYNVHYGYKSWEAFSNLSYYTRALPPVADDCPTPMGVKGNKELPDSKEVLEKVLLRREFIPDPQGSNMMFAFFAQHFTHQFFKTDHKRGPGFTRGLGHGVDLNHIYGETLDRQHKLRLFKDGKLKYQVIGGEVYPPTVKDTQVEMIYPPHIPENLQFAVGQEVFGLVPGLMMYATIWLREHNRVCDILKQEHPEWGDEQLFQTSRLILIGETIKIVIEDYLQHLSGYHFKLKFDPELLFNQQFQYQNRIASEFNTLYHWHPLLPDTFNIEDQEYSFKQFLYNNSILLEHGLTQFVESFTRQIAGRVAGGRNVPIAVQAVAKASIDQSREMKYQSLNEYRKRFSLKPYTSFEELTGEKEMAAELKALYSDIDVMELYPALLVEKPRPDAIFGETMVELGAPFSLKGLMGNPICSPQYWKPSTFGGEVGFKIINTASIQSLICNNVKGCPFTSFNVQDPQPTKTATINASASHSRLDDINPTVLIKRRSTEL
Here is the method: (§1) These mutated genes were used to assemble baculoviral constructs for large-scale expression in Sf9 cells. Purification of the expressed COX-2 protein was performed through traditional cellular fractionation and classical column chromatography. Activity or inhibition assays were performed in 100 mM Tris-HCl buffer containing 500 μM phenol, with hematin-reconstituted protein. Quantification of cyclooxygenase activity was performed by monitoring substrate (arachidonate or oxygen) consumption in a thermostatted cuvette at 37° C. using a polarographic electrode with a 5300 oxygen monitor (Yellow Springs Instrument Co. Inc., Yellow Springs, Ohio, United States of America). All inhibitors and substrates were solubilized in dimethyl sulfoxide (DMSO). Activity or inhibition assays were performed in 100 mM Tris-HCl buffer containing 500 μM phenol, with hematin-reconstituted protein. Maximal reaction velocity data were obtained from the linear portion of the oxygen uptake curves, and the data were analyzed by nonlinear regression with Prism 4.0 (GraphPad Software, San Diego, Calif., United States of America).
(§2) Time-dependent inhibition reactions were performed by pre-incubating the inhibitor and enzyme for 17 minutes at 25° C., followed by 3 minutes at 37° C. prior to the addition of 50 μM [1-^14C]-AA for 30 seconds at 37° C. Assays were terminated and analyzed for substrate consumption by thin layer chromatography as previously described (Kalgutkar et al., 2000a).
(§3) Maximal reaction velocity data were obtained from the linear portion of the oxygen uptake curves, and the data were analyzed by nonlinear regression. Instantaneous inhibition assays were performed with substrate and inhibitor added prior the initiation of the reaction by addition of protein. Time-dependent screening assays were performed by pre-incubating the inhibitor and enzyme for 17 minutes at 25° C., followed by 3 minutes at 37° C. prior to the addition of 50 μM [1-^14C]-arachidonic acid (AA) for 30 seconds at 37° C.
(§4) Assays were terminated and analyzed for substrate consumption by thin layer chromatography. […] Time-dependent COX inhibition reactions were pre-incubated at 37° C. for varying lengths of time (0-30 minutes) with various concentrations of inhibitor. All reactions were performed with [1-^14C]-AA for 30 seconds at 37° C.; reactions were terminated and analyzed as described above.
(§5) The COX reaction was allowed to proceed for 30 seconds before termination.

The target in test [2] is T2, wild type mCOX-2 (Mus musculus, UniProt Q05769).
T2 construct: made in house; host or cells: Sf9 insect cells (baculovirus, pVL1393)
T2 sequence (Q05769 18-604): T1 sequence (Q05769 18-604 V335L) with L318V
The conditions noted are these: 20 min pre-incubation, then 50 μM AA for 30 s. Here is the method:
as §1, §2, §3, §4, §5

Test [3] concerns the target T3, mCOX-2^V349I (Mus musculus, UniProt Q05769, V335I).
T3 construct: made in house; host or cells: Sf9 insect cells (baculovirus, pVL1393)
T3 sequence (Q05769 18-604 V335I): T1 sequence (Q05769 18-604 V335L) with L318I
The settings on record: 20 min pre-incubation, then 50 μM AA for 30 s. The method, then: as §1, §2, §3, §4, §5

For `COc1ccc2c(c1)c(CC(=O)O)cn2C(=O)c1ccc(Cl)cc1` [DM-INDO, 2-Des-methylindomethacin], the “inhibition in the time-dependent IC50 assay” value in test [1] was “less than 20%”. The 50% inhibitory concentration (IC50) in test [1] (20 min pre-incubation, then 50 μM AA for 30 s) was more than 16 µM; in test [2], 4 µM; in test [3] it was 3 µM.
